Values joined by “and” are separate entries in the source; they are usually repeats but may differ in a detail not shown here. Equal values may be shown once. Toxic doses and inconclusive results are not listed. Rule as the data show it: active = T/C of 150% or more; inactive = T/C below 125%.
Tested on: L1210 leukemia ip in BDF1 mice, survival T/C
Assay: NCI In Vivo Anticancer Drug Screen. Data for tumor model L1210 Leukemia (intraperitoneal) in B6D2F1 (BDF1) mice
Settings: endpoint: mean survival time, higher = longer survival
Outline: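 Each compound was tested against a transplantable tumor grown in mice. The endpoint was survival, with treated animals benchmarked against vehicle controls as a simple ratio.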

[1] = dose: 100.0 mg/kg/injection, schedule: Q01DX001 (ip), vehicle: Klucel (hydroxypropylcellulose) (HPC)
[2] = dose: 200.0 mg/kg/injection, schedule: Q01DX001 (ip), vehicle: Klucel (hydroxypropylcellulose) (HPC)
[3] = dose: 100.0 mg/kg/injection, schedule: Q01DX001 (ip), vehicle: saline
[4] = dose: 200.0 mg/kg/injection, schedule: Q01DX001 (ip), vehicle: saline
[5] = dose: 400.0 mg/kg/injection, schedule: Q01DX001 (ip), vehicle: saline
[6] = dose: 100.0 mg/kg/injection, schedule: Q04DX003 (ip), vehicle: Klucel (hydroxypropylcellulose) (HPC)
[7] = dose: 200.0 mg/kg/injection, schedule: Q04DX003 (ip), vehicle: Klucel (hydroxypropylcellulose) (HPC)
[8] = dose: 400.0 mg/kg/injection, schedule: Q01DX001 (ip), vehicle: Klucel (hydroxypropylcellulose) (HPC)
[9] = dose: 400.0 mg/kg/injection, schedule: Q04DX003 (ip), vehicle: Klucel (hydroxypropylcellulose) (HPC)
[10] = dose: 100.0 mg/kg/injection, schedule: Q01DX009 (ip), vehicle: saline with Tween-80
[11] = dose: 100.0 mg/kg/injection, schedule: Q04DX003 (ip), vehicle: saline with Tween-80
[12] = dose: 200.0 mg/kg/injection, schedule: Q01DX009 (ip), vehicle: saline with Tween-80
[13] = dose: 200.0 mg/kg/injection, schedule: Q04DX003 (ip), vehicle: saline with Tween-80
[14] = dose: 400.0 mg/kg/injection, schedule: Q01DX009 (ip), vehicle: saline with Tween-80
[15] = dose: 400.0 mg/kg/injection, schedule: Q04DX003 (ip), vehicle: saline with Tween-80

Measured: T/C

CCN(CC)C(=S)SC(=S)N(CC)CC
inactive: dose: 100.0 mg/kg/injection, schedule: Q04DX002 (ip), vehicle: gum acacia 103 % of control | dose: 200.0 mg/kg/injection, schedule: Q04DX002 (ip), vehicle: gum acacia 103 % of control | dose: 400.0 mg/kg/injection, schedule: Q04DX002 (ip), vehicle: gum acacia 89 % of control

CC(C)=NNC(=O)CC#N
inactive: [1] 86 % of control | [2] 94 % of control

Cc1c2ccccc2nc2ccccc12
inactive: [3] 106 % of control | [4] 98 % of control | [5] 101 % of control

CC(=O)OCC1OC(N2C(=O)/C(=C/c3ccncc3)SC2=S)C(OC(C)=O)C(OC(C)=O)C1OC(C)=O (stereo not given)
inactive: dose: 25.0 mg/kg/injection, schedule: Q01DX005 (ip), vehicle: other 97 % of control | dose: 50.0 mg/kg/injection, schedule: Q01DX005 (ip), vehicle: other 94 % of control | dose: 100.0 mg/kg/injection, schedule: Q01DX005 (ip), vehicle: other 97 % of control | dose: 400.0 mg/kg/injection, schedule: Q01DX005 (ip), vehicle: other 86 % of control

CCCCCCCCCC(=O)N/N=C/c1cccnc1
inactive: dose: 100.0 mg/kg/injection, schedule: Q01DX009 (ip), vehicle: other 96 % of control | dose: 200.0 mg/kg/injection, schedule: Q01DX009 (ip), vehicle: other 86 % of control | dose: 400.0 mg/kg/injection, schedule: Q01DX009 (ip), vehicle: other 86 % of control

O=C(/C=C\c1ccc(C(=O)Nc2ccc(C3=NCCN3)cc2)cc1)Nc1ccc(C2=NCCN2)cc1
inactive: dose: 6.0 mg/kg/injection, schedule: Q01DX Z (ip), vehicle: water 110 % of control | dose: 11.0 mg/kg/injection, schedule: Q01DX Z (ip), vehicle: water 102 % of control | dose: 15.0 mg/kg/injection, schedule: Q01DX Z (ip), vehicle: saline 114 % of control | dose: 22.0 mg/kg/injection, schedule: Q01DX Z (ip), vehicle: water 104 % of control | dose: 30.0 mg/kg/injection, schedule: Q01DX Z (ip), vehicle: saline 120 % of control | dose: 45.0 mg/kg/injection, schedule: Q01DX Z (ip), vehicle: water 107 % of control | dose: 60.0 mg/kg/injection, schedule: Q01DX Z (ip), vehicle: saline 122 % of control | dose: 120.0 mg/kg/injection, schedule: Q01DX Z (ip), vehicle: saline 113 % of control | dose: 240.0 mg/kg/injection, schedule: Q01DX Z (ip), vehicle: saline 117 % of control | dose: 480.0 mg/kg/injection, schedule: Q01DX Z (ip), vehicle: saline 103 % of control

CC1=C(c2ccccc2)OS(=O)(=O)NC1=O
inactive: dose: 100.0 mg/kg/injection, schedule: Q04DX003 (ip), vehicle: saline 100 % of control | dose: 200.0 mg/kg/injection, schedule: Q04DX003 (ip), vehicle: saline 97 % of control | dose: 400.0 mg/kg/injection, schedule: Q04DX003 (ip), vehicle: saline 101 % of control

CC(N)C(=O)c1ccccc1 (stereo not given)
inactive: dose: 50.0 mg/kg/injection, schedule: Q01DX009 (ip), vehicle: saline 97 % of control | dose: 100.0 mg/kg/injection, schedule: Q01DX009 (ip), vehicle: saline 92 % of control

CS(=O)(=O)Oc1ccccc1N(S(C)(=O)=O)S(C)(=O)=O
inactive: [1] 107 % of control | [6] 107 % of control | [2] 110 % of control | [7] 107 % of control | [8] 104 % of control | [9] 102 % of control

CC(C(=O)c1ccc(F)cc1)C(O)(C(F)(F)F)C(F)(F)F (stereo not given)
inactive: [6] 94 % of control | [7] 95 % of control | [9] 103 % of control

O=C(O)CSc1nc2ccccc2s1
inactive: [10] 107 % of control

CC(=O)CC(=O)Nc1cccc(O)c1
inactive: dose: 200.0 mg/kg/injection, schedule: Q01DX009 (ip), vehicle: Klucel (hydroxypropylcellulose) (HPC) 91 % of control | dose: 400.0 mg/kg/injection, schedule: Q01DX009 (ip), vehicle: Klucel (hydroxypropylcellulose) (HPC) 100 % of control

Cc1ccccc1SC(Sc1ccccc1C)(Sc1ccccc1C)Sc1ccccc1C
inactive: [1] 98 % of control | [2] 88 % of control | [8] 95 % of control

O=C(c1ccc([N+](=O)[O-])cc1)c1ccc([N+](=O)[O-])cc1
inactive: dose: 100.0 mg/kg/injection, schedule: Q04DX002 (ip), vehicle: saline with Tween-80 90 % of control | dose: 200.0 mg/kg/injection, schedule: Q04DX002 (ip), vehicle: saline with Tween-80 90 % of control | dose: 400.0 mg/kg/injection, schedule: Q04DX002 (ip), vehicle: saline with Tween-80 101 % of control

Nc1ccc(S(=O)(=O)NCc2nccs2)cc1
inactive: dose: 5.0 mg/kg/injection, schedule: Q01DX001 (ip), vehicle: saline 102 % of control | dose: 10.0 mg/kg/injection, schedule: Q01DX001 (ip), vehicle: saline 100 % of control | dose: 20.0 mg/kg/injection, schedule: Q01DX001 (ip), vehicle: saline 100 % of control | dose: 40.0 mg/kg/injection, schedule: Q01DX001 (ip), vehicle: saline 102 % of control | dose: 80.0 mg/kg/injection, schedule: Q01DX001 (ip), vehicle: saline 100 % of control

O=C(O)C1CC1Oc1ccccc1 (stereo not given)
inactive: [10] 96 % of control | [11] 110 % of control | [12] 92 % of control | [13] 108 % of control | [14] 87 % of control | [15] 106 % of control

O=C(NCCCl)OCCCl
inactive: dose: 100.0 mg/kg/injection, schedule: Q04DX002 (ip), vehicle: saline 94 % of control | dose: 200.0 mg/kg/injection, schedule: Q04DX002 (ip), vehicle: saline 97 % of control | dose: 400.0 mg/kg/injection, schedule: Q04DX002 (ip), vehicle: saline 94 % of control

CC1(C)OC2C(COC(=O)Oc3ccccc3)OC(n3cnc4c(=O)[nH]c(N)nc43)C2O1 (stereo not given)
inactive: dose: 100.0 mg/kg/injection, schedule: Q01DX005 (ip), vehicle: saline 106 % of control | dose: 200.0 mg/kg/injection, schedule: Q01DX005 (ip), vehicle: saline 97 % of control

C[N+](C)(CCNCc1ccccc1)Cc1ccccc1
inactive: [3] 102 % of control | [4] 100 % of control | [5] 100 % of control

CCC/C(=N/NC(=O)C1CCCO1)c1ccccc1 (stereo not given)
inactive: dose: 25.0 mg/kg/injection, schedule: Q01DX009 (ip), vehicle: Klucel (hydroxypropylcellulose) (HPC) 104 % of control | dose: 50.0 mg/kg/injection, schedule: Q01DX009 (ip), vehicle: Klucel (hydroxypropylcellulose) (HPC) 102 % of control | dose: 100.0 mg/kg/injection, schedule: Q01DX009 (ip), vehicle: Klucel (hydroxypropylcellulose) (HPC) 104 % of control and 88 % of control

Cc1ncc(C#N)c(=O)[nH]1
inactive: dose: 25.0 mg/kg/injection, schedule: Q04DX003 (ip), vehicle: saline with Tween-80 92 % of control | dose: 50.0 mg/kg/injection, schedule: Q04DX003 (ip), vehicle: saline with Tween-80 90 % of control | [11] 90 % of control

CC(=O)c1sc2sc(C(C)=O)c(NC(=S)Nc3cccc(C(F)(F)F)c3)c2c1NC(=S)Nc1cccc(C(F)(F)F)c1
inactive: dose: 50.0 mg/kg/injection, schedule: Q04DX002 (ip), vehicle: saline with Tween-80 98 % of control and 99 % of control | dose: 100.0 mg/kg/injection, schedule: Q01DX001 (ip), vehicle: saline with Tween-80 96 % of control | [10] 96 % of control and 89 % of control | [11] 93 % of control | dose: 200.0 mg/kg/injection, schedule: Q01DX001 (ip), vehicle: saline with Tween-80 92 % of control | [12] 101 % of control and 86 % of control | [13] 90 % of control | dose: 400.0 mg/kg/injection, schedule: Q01DX001 (ip), vehicle: saline with Tween-80 100 % of control | [14] 96 % of control and 91 % of control

O=C1C(Cl)=C(Cl)C(=O)N1c1ccc(Cl)c(Cl)c1
inactive: [10] 98 % of control | [11] 91 % of control | [12] 101 % of control | [13] 87 % of control | [15] 94 % of control

CCCCS(=O)(=O)CCN1C(=O)C2C3CCC(O3)C2C1=O (stereo not given)
inactive: dose: 100.0 mg/kg/injection, schedule: Q04DX002 (ip), vehicle: Klucel (hydroxypropylcellulose) (HPC) 98 % of control | dose: 200.0 mg/kg/injection, schedule: Q04DX002 (ip), vehicle: Klucel (hydroxypropylcellulose) (HPC) 123 % of control | dose: 400.0 mg/kg/injection, schedule: Q04DX002 (ip), vehicle: Klucel (hydroxypropylcellulose) (HPC) 107 % of control
